Experimental data reported in US20250351832A1, “PHYTOCHEMICALS AS BIOPESTICIDES AND BIOSTIMULANTS” (KAY BEE BIO ORGANICS PVT. LTD., priority 2024, published 2025).
Read-outs that look alike come from different tables or passages of the source.

Assays:
Mite [1] = details: Dose 1 ml/gm/lit.
Helicoverpa armigera [2] = details: Helicoverpa armigera 3rd instar on chickpea plants, dose 1 ml/gm/lit. spray
tomato seedlings = assay: Response of tomato plants, greenhouse growth (Ex. 30); format: in vivo; details: tomato seedlings, dose 1 ml/gm/lit
Spodoptera litura [3] = details: Spodoptera litura 3rd instar on cabbage plants, dose 1 ml/gm/lit. spray
Thrips [4] = details: Thrips on cotton leaves, dose 1 ml/gm/lit.
Aphid [5] = details: Aphids on cotton plants, green house, dose 1 ml/gm/lit.
Mite [6] = details: mite on okra plants, green house, dose 1 ml/gm/lit. spray
Alternaria alternata [7] = assay: In vitro poisoned food technique against fungus (Ex. 20); format: cell-based; details: poisoned food technique, PDA medium, dose 1 ml/gm/lit., after seven days
Mealy Bug [8] = details: mealy bug on cotton plants, green house, dose 1 ml/gm/lit. spray
[9] = cited from earlier work
Alternaria alternata [10] = assay: Alternaria leaf spot/blight on inoculated tomato plants (Ex. 28); format: in vivo; details: tomato plants, Alternaria alternata; after 7 days; dose 1 ml/gm/lit
Aphid [11] = details: Dose 1 ml/gm/lit.
chili seedlings = assay: Response of chili plants, greenhouse growth (Ex. 31); format: in vivo; details: chili seedlings, dose 1 ml/gm/lit
Thrips [12] = details: thrips on cotton plants, greenhouse, dose 1 ml/gm/lit. spray
Helicoverpa armigera [13] = details: Helicoverpa armigera on okra fruits, dose 1 ml/gm/lit., 72 Hrs.
Spodoptera litura [14] = details: Spodoptera litura on castor leaves, dose 1 ml/gm/lit.
Mealy Bug [15] = details: Mealy Bug on cotton leaves, dose 1 ml/gm/lit., 48 Hrs.
[16] = 72 hrs, corrected for water control
[17] = 48 hrs, corrected for water control
[18] = Table 13, descriptive, no test described
[19] = 10 insects/treatment, 4 replications

Berberine
Total No. of dead insect at 48 Hrs. (Mite [1]; 10 insects/treatment, 4 replications, okra leaves): 4.75 | % Corrected Mortality at 48 Hrs. (Mite [1]; 48 hrs): 43.24% | % Mortality at 48 Hrs. (Mite [1]; 48 hrs): 47.50% | % Mortality at 72 Hrs. (Helicoverpa armigera [2]; 72 hrs after application): 62.50% | % Corrected Mortality at 72 Hrs. (Helicoverpa armigera [2]; [16]): 62.50% | Plant Height 5th Day (tomato seedlings; 5th day after application): 6.78 cm | Stem Girth 5th Day (tomato seedlings; 5th day after application): 2.01 mm | Plant Height 10th Day (tomato seedlings; 10th day after application): 7.34 cm | Stem Girth 10th Day (tomato seedlings; 10th day after application): 2.25 mm | Plant Height % Increase over pre on 10th Day (tomato seedlings; 10th day): 29.91% | Stem Girth % Increase over pre on 10th Day (tomato seedlings; 10th day): 54.11% | Plant Height Pre (tomato seedlings; before application): 5.65 cm | Stem Girth Pre (tomato seedlings; before application): 1.46 mm | CCI 5th Day (tomato seedlings; 5th day after application): 14.53 | CCI % Increase over pre on 10th Day (tomato seedlings; 10th day): 24.86% | Root Length (cm) 10th Day (tomato seedlings; 10th day): 4.13 cm | CCI 10th Day (tomato seedlings; 10th day after application): 15.67 | Root Length % Increase over control (tomato seedlings; 10th day, vs water control): 24.12% | CCI Pre (tomato seedlings; pre-application baseline): 12.55 | % Mortality at 72 Hrs. (Spodoptera litura [3]; 72 hrs after application): 67.50% | % Corrected Mortality at 72 Hrs. (Spodoptera litura [3]; [16]): 65.79% | Total No. of dead insect at 48 Hrs. (Thrips [4]; 10 insects/treatment, 48 hrs after application): 6.50 | % Mortality at 48 Hrs. (Thrips [4]; 48 hrs after application): 65.00% | % Corrected Mortality at 48 Hrs. (Thrips [4]; [17]): 60.00% | Total No. of dead insect at 48 Hrs. (Aphid [5]; 10 insects/plant, 10 plants/treatment, 48 hrs): 55.00 | % Mortality at 48 Hrs. (Aphid [5]; 48 hrs after application): 55.00% | % Corrected Mortality at 48 Hrs. (Aphid [5]; [17]): 47.06% | % Mortality at 48 Hrs. (Mite [6]; 48 hrs after application): 45.00% | Total No. of dead insect at 48 Hrs. (Mite [6]; 48 hrs after application): 45.00 | % Corrected Mortality at 48 Hrs. (Mite [6]; [17]): 42.11% | Mean colony Diameter (mm) (Alternaria alternata [7]): 45.50 mm | % Inhibition of growth (Alternaria alternata [7]; vs untreated control): 48.30% | % Mortality at 48 Hrs. (Mealy Bug [8]; 48 hrs after application): 70.00% | Total No. of dead insect at 48 Hrs. (Mealy Bug [8]; 48 hrs after application): 70.00 | % Corrected Mortality at 48 Hrs. (Mealy Bug [8]; [17]): 66.67% | Antifungal Activity - Mode of action [9, 18]: Inhibit multipath mechanisms, | Antioxidant Activity - Mode of action [9, 18]: Reducing Oxidative Stress | Bactericidal Activity - Mode of action [9, 18]: Resulting in DNA damage, | Insecticidal Activities - Mode of action [9, 18]: Disturbed moulting, larval- | Nematicidal Activity - Mode of action [9, 18]: Effective against root knot | Phytotonic Effect ([9]; Table 13, effect on plants, descriptive): Boost | % Disease reduction over Control (Alternaria alternata [10]): 52.89% | Total No. of dead insect at 48 Hrs. (Aphid [11]; 10 insects/treatment, 4 replications, cotton leaves): 5.25 | % Corrected Mortality at 48 Hrs. (Aphid [11]; 48 hrs): 45.71% | % Mortality at 48 Hrs. (Aphid [11]; 48 hrs): 52.50% | CCI 5th Day (chili seedlings; 5th day after application): 13.04 | Plant Height (cm) 5th Day (chili seedlings; 5th day after application): 6.15 cm | CCI % Increase over pre on 10th Day (chili seedlings; 10th day): 36.98% | Plant Height % Increase over pre on 10th Day (chili seedlings; 10th day): 50.11% | Root Lenght (cm) 10th Day (chili seedlings; 10th day): 3.11 cm | Stem Girth % Increase over pre on 10th Day (chili seedlings; 10th day): 40.15% | CCI 10th Day (chili seedlings; 10th day after application): 14.04 | Plant Height (cm) 10th Day (chili seedlings; 10th day after application): 6.89 cm | Root Lenght % Increase over control (chili seedlings; 10th day, vs water control): 13.75% | CCI Pre (chili seedlings; pre-application baseline): 10.25 | Plant Height (cm) Pre (chili seedlings; pre-application baseline): 4.59 cm | % Mortality at 48 Hrs. (Thrips [12]; 48 hrs after application): 67.50% | Total No. of dead insect at 48 Hrs. (Thrips [12]; 48 hrs after application): 67.50 | % Corrected Mortality at 48 Hrs. (Thrips [12]; [17]): 63.89% | Total No. of dead insect at 72 Hrs. (Helicoverpa armigera [13]; [19]): 6.50 | % Mortality at 72 Hrs. (Helicoverpa armigera [13]): 65.00% | % Corrected Mortality at 72 Hrs. (Helicoverpa armigera [13]; corrected for water control): 65.00% | Total No. of dead insect at 72 Hrs. (Spodoptera litura [14]; 10 insects/treatment, 72 hrs after application): 7.00 | % Mortality at 72 Hrs. (Spodoptera litura [14]; 72 hrs after application): 70.00% | % Corrected Mortality at 72 Hrs. (Spodoptera litura [14]; [16]): 68.42% | Total No. of dead insect at 48 Hrs. (Mealy Bug [15]; [19]): 7.50 | % Mortality at 48 Hrs. (Mealy Bug [15]): 75.00% | % Corrected Mortality at 48 Hrs. (Mealy Bug [15]; corrected for water control): 73.68%
